Source: patent US20250034218A1, “ANTIMICROBIAL PEPTIDES” (BiomEdit, LLC, priority 2021, published 2025)
Ends that are not written are not given here.

Assays:
[1] = system: E. coli DH5 alpha; type: cell-based, Escherichia coli
Procedure: A MIC assay was set up using heat treated CAP18 variants in a 96-well plate. […] Appropriate controls (media only control, no CAP18 control) were included on the same plate. The plates were incubated at 37° C. for 24-48 hours and MIC for each variant was recorded. The experiment was repeated 3 times.

[2] = system: E. coli DH5alpha; type: cell-based, Escherichia coli; settings: peptide treated with proteinase K at 37° C. before MIC assay
Procedure: CAP18 peptide variants single mutants were evaluated for resistance to proteinase K. Peptides were subjected to proteinase K treatment and then assessed for bacterial cell killing (against E. coli) in a MIC assay.
CAP18 variants were synthesized from GenScript, Inc, and solubilized in sterile purified water to a final concentration of 4 mg/ml. E. coli DH5alpha was grown overnight in 10 ml LB broth. Ten microliters of each CAP18 variant was treated with 2 μl of proteinase K (Qjagen, >600 mAU/ml) and incubated at 37° C. for 2 or 5 minutes in a PCR machine. The samples were then incubated at 98° C. for 5 minutes to inactivate proteinase K. An MIC assay was set up using proteinase K-treated CAP18 variants in a 96-well plate. Briefly, the peptides were serially diluted 2-fold in LB broth to achieve a final volume of 50 μl in each well and 50 μl of the E. coli DH5alpha culture adjusted to a concentration of 2×10^6 cells/ml was added into each well. Appropriate controls (media only control, no CAP18 control) were included on the same plate. The plates were incubated at 37° C. for 24-48 hours and MIC for each variant was recorded. The experiment was repeated 3 times.

[3] = system: E. coli DH5alpha; type: cell-based, Escherichia coli; settings: peptide treated with trypsin at 37° C. before MIC assay
Procedure: CAP18 peptide variants single mutants were evaluated for resistance to trypsin. Peptides were subjected to trypsin protease treatment and then assessed for bacterial cell killing (against E. coli) in a MIC assay.
CAP18 variants were synthesized from GenScript, Inc, and solubilized in sterile purified water to a final concentration of 4 mg/ml. E. coli DH5alpha was grown overnight in 10 ml LB broth. Ten microliters of each CAP18 variant was treated with 2 μl (or 2 μl of the 10-fold diluted trypsin) of trypsin (0.25%, Sigma Aldrich) and incubated at 37° C. for 2 or 5 minutes in a PCR machine. The samples were then incubated at 98° C. for 5 minutes to inactivate trypsin. An MIC assay was set up using trypsin-treated CAP18 variants in a 96-well plate. Briefly, the peptides were serially diluted 2-fold in LB broth to achieve a final volume of 50 μl in each well and 50 μl of the E. coli DH5alpha culture adjusted to a concentration of 2×10^6 cells/ml was added into each well. Appropriate controls (media only control, no CAP18 control) were included on the same plate. The plates were incubated at 37° C. for 24-48 hours and MIC for each variant was recorded. The experiment was repeated 3 times.

[4] = system: Giardia; assay: Giardia plate assay, % of control (Table 3); type: cell-based; settings: Conc 10 (uM or %); plate G7
Excerpt: Data comparing AMP01 (wild type CAP 18 peptide (SEQ ID NO: 1) with various other agents is tabulated in Table 3. NTZ corresponds to nitazoxanide. ALB corresponds to albendazole.

[5] = system: Escherichia coli Dh5alpha; assay: MIC with diluted or undiluted trypsin and without trypsin (variant CAP18 peptides); type: cell-based; settings: compared to WT CAP18
Procedure: Testing of CAP18 variants for protease resistance using Escherichia coli Dh5alpha as an indicator organism. CAP18 variants were synthesized from GenScript, Inc, and solubilized in sterile purified water to a final concentration of 4 mg/ml. E. coli DH5alpha was grown overnight in 10 ml LB broth. Ten microliters of each CAP18 variant was treated with 2 μl (or 2 μl of the 10-fold diluted trypsin) of trypsin (0.25%, Sigma Aldrich) and incubated at 37° C. for 2 or 5 minutes in a PCR machine. An MIC assay was set up using trypsin-treated CAP18 variants in a 96-well plate. Briefly, the peptides were serially diluted 2-fold in LB broth to achieve a final volume of 50 μl in each well and 50 μl of the E. coli DH5alpha culture adjusted to a concentration of 2×10^6 cells/ml was added into each well. Appropriate controls (media only control, no CAP18 control) were included on the same plate. The plates were incubated at 37° C. for 24-48 hours and MIC for each variant was recorded. The experiment was repeated 3 times.
Numerous variant CAP18 peptides were tested to determine and assess their resistance to protease. In each assessment, the variant CAP18 peptides were compared to wild type CAP18 rabbit sequence ([…] (SEQ ID NO:1)). Peptides were evaluated using trypsin diluted 1:10, 1:2 and undiluted. Experiments were conducted in duplicate. In each instance minimal inhibitory concentration (MIC) of the peptide was determined in the presence of the applicable diluted or undiluted trypsin and in the absence of trypsin. Experiments l and 2 are duplicate assessments with 1:10 diluted trypsin. Experiments 3 and 4 are duplicate assessments with 1:2 diluted trypsin. Experiments 5 and 6 are duplicate assessments with undiluted trypsin.

[6] = system: Bovine Respiratory Disease (BRD); settings: positive control treatment; reduces from approximately 30%; cited from earlier work

## GLRKRLRKFRNKIKEKLKKIGQKIQGLLPKIAPRTDY [C16]
[1]
  Thermotolerance at 90 for 5 minutes (MIC, ug/ml): 100 µg/mL
[2]
  Resistance to proteinase K (MIC, ug/ml): >400 µg/mL
[3]
  Resistance to trypsin (MIC, ug/ml): 50 µg/mL

## GLRKRLRKIRNKIKEKLKKIGQKIQGLLPKLAPRTDY [C12]
[1]
  Thermotolerance at 90 for 5 minutes (MIC, ug/ml): 100 µg/mL
[2]
  Resistance to proteinase K (MIC, ug/ml): 200 µg/mL
[3]
  Resistance to trypsin (MIC, ug/ml): 100 µg/mL

## CC(=O)Oc1ccccc1C(=O)Nc1ncc([N+](=O)[O-])s1 [NTZ, nitazoxanide]
[4]
  % of control MV: 0.6%

## GLRKRLKKFRNKIKEKLKKIGQKIQGLLPKLAPRTDY [C9]
[1]
  Thermotolerance at 90 for 5 minutes (MIC, ug/ml): 50 µg/mL
[2]
  Resistance to proteinase K (MIC, ug/ml): 400 µg/mL
[3]
  Resistance to trypsin (MIC, ug/ml): 400 µg/mL

## CWTKSIPPKPCGCRKPLRKIRNKIKEKLKKIGQKIQGLLPKLAPRTDY (Description of sequence: Mutation Sequence) [SEQ ID NO: 22]
[5]
  activity (MIC) and protease resistance: better activity (lower MIC) and protease resistance

## CCCSc1ccc2nc(NC(=O)OC)[nH]c2c1 [ALB, albendazole]
[4]
  % of control MV: 1.5%

## GLRKRLRKFKNKIKEKLKKIGQKIQGLLPKLAPRTDY [C10]
[1]
  Thermotolerance at 90 for 5 minutes (MIC, ug/ml): 100 µg/mL
[2]
  Resistance to proteinase K (MIC, ug/ml): 400 µg/mL
[3]
  Resistance to trypsin (MIC, ug/ml): 50 µg/mL

## GLRKRLRKFRNKIKPKLKKIGQKIQGLLPKLAPRTDY [C4]
[1]
  Thermotolerance at 90 for 5 minutes (MIC, ug/ml): 400 µg/mL
[2]
  Resistance to proteinase K (MIC, ug/ml): >400 µg/mL
[3]
  Resistance to trypsin (MIC, ug/ml): >400 µg/mL

## GLRKRLRKFRNKIKEKLKKIGQKIQGLLPKPAPRTDY [C5]
[1]
  Thermotolerance at 90 for 5 minutes (MIC, ug/ml): >400 µg/mL
[2]
  Resistance to proteinase K (MIC, ug/ml): >400 µg/mL
[3]
  Resistance to trypsin (MIC, ug/ml): 400 µg/mL

## CCCNC[C@]1(O)[C@H](C)O[C@@H](O[C@H]2[C@H](C)[C@@H](O[C@@H]3O[C@H](C)C[C@H](N(C)C)[C@H]3O)[C@](C)(O)C[C@@H](C)CN[C@H](C)[C@@H](O)[C@](C)(O)[C@@H](CC)OC(=O)[C@@H]2C)C[C@@]1(C)OC [tulathromycin]
[6]
  lung consolidation: ~5%

## GLRKRLRKFRNKIKEKLKKIGQKIQGLLPKLAPRPDY [C6]
[1]
  Thermotolerance at 90 for 5 minutes (MIC, ug/ml): 1200 µg/mL
[2]
  Resistance to proteinase K (MIC, ug/ml): >400 µg/mL
[3]
  Resistance to trypsin (MIC, ug/ml): >400 µg/mL

## GLRKRLRKFRNKIKEKLKKIGQKIQGLLPKLAPKTDY [C11]
[1]
  Thermotolerance at 90 for 5 minutes (MIC, ug/ml): 200 µg/mL
[2]
  Resistance to proteinase K (MIC, ug/ml): >400 µg/mL
[3]
  Resistance to trypsin (MIC, ug/ml): 200 µg/mL

## GLRKKLRKFRNKIKEKLKKIGQKIQGLLPKLAPRTDY [C8]
[1]
  Thermotolerance at 90 for 5 minutes (MIC, ug/ml): 100 µg/mL
[2]
  Resistance to proteinase K (MIC, ug/ml): 400 µg/mL
[3]
  Resistance to trypsin (MIC, ug/ml): 50 µg/mL

## CWTKSIPPKPCGLRKRLKKIKNKIKEKLKKIGQKIQGLLPKLAPRTDY (Description of sequence: Mutation Sequence) [SEQ ID NO: 18]
[5]
  activity (MIC) and protease resistance: effective at the lowest concentration (lowest MIC) and was the most protease resistant in all experiments

## GLKKRLRKFRNKIKEKLKKIGQKIQGLLPKLAPRTDY [C7]
[1]
  Thermotolerance at 90 for 5 minutes (MIC, ug/ml): 200 µg/mL
[2]
  Resistance to proteinase K (MIC, ug/ml): >400 µg/mL
[3]
  Resistance to trypsin (MIC, ug/ml): 50 µg/mL

## GIRKRLRKFRNKIKEKLKKIGQKIQGLLPKLAPRTDY [C13]
[1]
  Thermotolerance at 90 for 5 minutes (MIC, ug/ml): 200 µg/mL
[2]
  Resistance to proteinase K (MIC, ug/ml): >400 µg/mL
[3]
  Resistance to trypsin (MIC, ug/ml): 100 µg/mL

## GLRKRLRKFRNKIKEKIKKIGQKIQGLLPKLAPRTDY [C15]
[1]
  Thermotolerance at 90 for 5 minutes (MIC, ug/ml): 200 µg/mL
[2]
  Resistance to proteinase K (MIC, ug/ml): >400 µg/mL
[3]
  Resistance to trypsin (MIC, ug/ml): 50 µg/mL

## GLRKRIRKFRNKIKEKLKKIGQKIQGLLPKLAPRTDY [C14]
[1]
  Thermotolerance at 90 for 5 minutes (MIC, ug/ml): 100 µg/mL
[2]
  Resistance to proteinase K (MIC, ug/ml): >400 µg/mL
[3]
  Resistance to trypsin (MIC, ug/ml): 50 µg/mL

## CWTKSIPPKPCGLRKKLKKIRNKIKEKLKKIGQKIQGLLPKLAPRTDY (Description of sequence: Mutation Sequence) [SEQ ID NO: 20]
[5]
  activity (MIC) and protease resistance: better activity (lower MIC) and protease resistance

## GLRKRLRPFRNKIKEKLKKIGQKIQGLLPKLAPRTDY [C2]
[1]
  Thermotolerance at 90 for 5 minutes (MIC, ug/ml): 100 µg/mL
[2]
  Resistance to proteinase K (MIC, ug/ml): >400 µg/mL
[3]
  Resistance to trypsin (MIC, ug/ml): >400 µg/mL

## CWTKSIPPKPCGLRKRLRKIKNKIKEKLKKIGQKIQGLLPKLAPKTDY (Description of sequence: Mutation Sequence) [SEQ ID NO: 21]
[5]
  activity (MIC) and protease resistance: better activity (lower MIC) and protease resistance

## GLRKRLRKFRPKIKEKLKKIGQKIQGLLPKLAPRTDY [C3]
[1]
  Thermotolerance at 90 for 5 minutes (MIC, ug/ml): >400 µg/mL
[2]
  Resistance to proteinase K (MIC, ug/ml): >400 µg/mL
[3]
  Resistance to trypsin (MIC, ug/ml): >400 µg/mL

## CWTKSIPPKPCGLRKILKKIKNKIKEKLKKIGQKIQGLLPKLAPRTDY (Description of sequence: Mutation Sequence) [SEQ ID NO: 19]
[5]
  activity (MIC) and protease resistance: better activity (lower MIC) and protease resistance

## GLRPRLRKFRNKIKEKLKKIGQKIQGLLPKLAPRTDY [C1]
[1]
  Thermotolerance at 90 for 5 minutes (MIC, ug/ml): 200 µg/mL
[2]
  Resistance to proteinase K (MIC, ug/ml): >400 µg/mL
[3]
  Resistance to trypsin (MIC, ug/ml): 100 µg/mL
